Measured values: patent US20190307754A1, “PDE9 INHIBITORS FOR TREATMENT OF PERIPHERAL DISEASES” (IMARA, INC., priority 2016, published 2019)
“Also recorded” adds a separate entry of the source.

Legend:
[1] = tested on: CD34+ derived red blood cells from SCD subjects; conditions: 10 μM Compound P3.1, 5 days
rat = assay: Rat female fertility study; type: in vivo; conditions: female rat, 25, 100, or 200 mg/kg/d oral gavage
Description: In a rat female fertility study, animal groups were given 0, 25, 100, or 200 mg/kg/d oral gavage of Compound P3.1. No treatment-related clinical signs were observed. […] There were no macroscopic necropsy findings that indicated an effect of Compound P3.1 administration.

CYP1A2 = assay: CYP induction in human hepatocytes, CYP1A2; type: in vitro ADME
CYP3A4 = assay: CYP induction, CYP3A4; type: in vitro ADME
[2] = target: T1, MDR1 (human P-gp) efflux transporter (Homo sapiens, UniProt P08183); assay: Bi-directional permeability across MDCK-MDR1 cell monolayer; type: in vitro ADME
T1 construct: expressed in transfected cells; host or cells: MDCK-MDR1 cells
T1 sequence (P08183 whole entry): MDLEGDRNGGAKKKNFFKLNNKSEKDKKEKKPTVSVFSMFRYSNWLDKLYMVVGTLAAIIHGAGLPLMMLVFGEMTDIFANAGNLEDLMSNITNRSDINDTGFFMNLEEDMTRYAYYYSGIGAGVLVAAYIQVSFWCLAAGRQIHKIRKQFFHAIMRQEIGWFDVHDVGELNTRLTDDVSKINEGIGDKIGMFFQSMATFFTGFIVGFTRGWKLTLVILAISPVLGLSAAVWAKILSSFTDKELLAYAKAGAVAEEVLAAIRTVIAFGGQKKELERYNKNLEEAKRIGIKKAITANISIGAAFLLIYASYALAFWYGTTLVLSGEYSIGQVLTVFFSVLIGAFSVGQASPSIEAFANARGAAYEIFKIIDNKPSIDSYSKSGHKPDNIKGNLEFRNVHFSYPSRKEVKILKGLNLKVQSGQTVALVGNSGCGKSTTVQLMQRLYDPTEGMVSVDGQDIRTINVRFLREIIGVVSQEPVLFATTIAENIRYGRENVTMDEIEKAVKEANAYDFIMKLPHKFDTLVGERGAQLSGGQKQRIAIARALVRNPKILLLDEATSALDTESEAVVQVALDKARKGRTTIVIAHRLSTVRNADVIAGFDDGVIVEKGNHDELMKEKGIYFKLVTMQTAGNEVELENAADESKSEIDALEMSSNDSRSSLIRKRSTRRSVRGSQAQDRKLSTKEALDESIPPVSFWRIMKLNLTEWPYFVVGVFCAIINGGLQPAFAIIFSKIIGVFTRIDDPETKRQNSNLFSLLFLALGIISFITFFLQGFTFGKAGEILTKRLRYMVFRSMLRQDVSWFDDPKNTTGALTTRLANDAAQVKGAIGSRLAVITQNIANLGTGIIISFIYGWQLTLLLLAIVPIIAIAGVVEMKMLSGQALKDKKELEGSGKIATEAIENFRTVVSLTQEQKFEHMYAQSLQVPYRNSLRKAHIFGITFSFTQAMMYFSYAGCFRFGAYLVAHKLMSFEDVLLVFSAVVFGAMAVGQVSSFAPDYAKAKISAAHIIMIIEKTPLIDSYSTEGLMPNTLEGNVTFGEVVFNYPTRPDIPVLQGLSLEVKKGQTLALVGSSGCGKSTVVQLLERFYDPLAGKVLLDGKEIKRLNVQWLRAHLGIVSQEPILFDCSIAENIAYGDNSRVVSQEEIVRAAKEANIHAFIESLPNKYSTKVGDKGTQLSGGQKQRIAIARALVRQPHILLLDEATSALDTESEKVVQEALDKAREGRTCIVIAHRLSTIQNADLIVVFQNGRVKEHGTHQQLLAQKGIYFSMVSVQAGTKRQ

MDR1 (P-gp) = target: T2, MDR1 (P-gp) (Homo sapiens, UniProt P08183); assay: as above; type: in vitro ADME; conditions: human
T2 construct: expressed in transfected cells; host or cells: MDCK-MDR1 cells
T2 sequence (P08183 whole entry): as above

[3] = Chromosome aberration study; type: cell-based
Excerpt: The genotoxicity evaluation of Compound P3.1 consisted of a bacterial reverse mutation assay, a chromosome aberration study, and a in vivo rat micronucleus study. Compound P3.1 was negative in all 3 assays.

[4] = Plasma protein binding, rat; type: in vitro ADME; conditions: read-out: mean plasma fraction bound (converted)
[5] = target: hERG-mediated potassium currents (Homo sapiens, UniProt Q12809); assay: in vitro hERG assay; type: cell-based; conditions: concentrations up through 10^−5 M
Sequence of hERG-mediated potassium currents (Q12809 whole entry): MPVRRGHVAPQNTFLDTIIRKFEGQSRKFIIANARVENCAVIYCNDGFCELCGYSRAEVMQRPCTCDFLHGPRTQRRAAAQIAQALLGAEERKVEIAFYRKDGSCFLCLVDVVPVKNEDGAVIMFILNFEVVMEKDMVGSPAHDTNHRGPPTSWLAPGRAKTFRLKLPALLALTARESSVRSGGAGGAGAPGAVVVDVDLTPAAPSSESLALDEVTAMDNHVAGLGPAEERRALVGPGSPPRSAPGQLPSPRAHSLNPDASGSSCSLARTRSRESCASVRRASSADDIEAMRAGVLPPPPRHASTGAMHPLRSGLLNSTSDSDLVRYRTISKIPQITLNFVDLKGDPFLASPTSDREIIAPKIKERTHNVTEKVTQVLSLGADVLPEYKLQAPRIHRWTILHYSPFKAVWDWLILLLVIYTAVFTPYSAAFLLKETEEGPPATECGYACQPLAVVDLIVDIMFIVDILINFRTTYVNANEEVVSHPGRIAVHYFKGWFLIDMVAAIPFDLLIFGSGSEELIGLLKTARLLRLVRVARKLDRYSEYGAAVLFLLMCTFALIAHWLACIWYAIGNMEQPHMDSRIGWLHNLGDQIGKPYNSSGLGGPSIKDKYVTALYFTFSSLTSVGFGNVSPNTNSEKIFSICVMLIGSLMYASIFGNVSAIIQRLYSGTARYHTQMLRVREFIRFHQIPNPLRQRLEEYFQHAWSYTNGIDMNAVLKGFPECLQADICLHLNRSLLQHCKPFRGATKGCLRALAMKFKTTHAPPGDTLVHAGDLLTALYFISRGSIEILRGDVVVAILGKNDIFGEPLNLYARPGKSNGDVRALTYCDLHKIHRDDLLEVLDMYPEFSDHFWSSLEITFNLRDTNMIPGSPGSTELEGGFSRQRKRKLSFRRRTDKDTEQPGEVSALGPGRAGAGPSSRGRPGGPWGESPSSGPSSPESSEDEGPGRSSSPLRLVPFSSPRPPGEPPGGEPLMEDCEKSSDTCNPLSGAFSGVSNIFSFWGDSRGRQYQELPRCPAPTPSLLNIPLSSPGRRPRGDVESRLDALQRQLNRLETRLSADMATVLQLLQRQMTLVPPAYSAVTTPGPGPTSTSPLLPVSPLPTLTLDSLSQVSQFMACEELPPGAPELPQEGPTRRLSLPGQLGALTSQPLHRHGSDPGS
Excerpt: The safety pharmacology assessment of Compound P3.1 included an in vitro hERG assay, neurofunctional and respiratory studies in rats, and a cardiovascular study in beagle dogs.

[6] = Plasma protein binding, dog; type: in vitro ADME; conditions: read-out: mean plasma fraction bound (converted)
[7] = tested on: Berkeley sickle cell transgenic mice; assay: HbF positive and sickled red blood cells in Berkeley sickle cell transgenic mice; type: in vivo; conditions: 30 mg/kg/day Compound P3.1 or 100 mg/kg/day HU, gavage, 30 days
Description: This study assessed the effects of chronic dosing (30 day) of Compound P3.1 and HU on HbF and cell sickling in a mouse model of sickle cell disease. Berkeley sickle cell transgenic mice (Hbatm1PazHbbtm1Tow Tg(HBA-HBBs)41Paz/J) were divided into groups of 7 to 8 animals and were dosed once daily, by gavage, for 30 days with either vehicle (PEG:water), 30 mg/kg/day of Compound P3.1, or 100 mg/kg/day of HU. This mouse genotype mimics the genetic, hematologic and histopathologic features that are found in humans afflicted with sickle cell anemia, including irreversibly sickled RBCs, anemia and multi-organ pathology. Blood was collected from treated animals on Day 30 for limited routine hematology as well as derivation of the percent of sickled and HbF positive RBCs and total bilirubin. At termination, the spleen was removed and weighed.

[8] = Plasma protein binding, monkey; type: in vitro ADME; conditions: read-out: mean plasma fraction bound (converted)
[9] = tested on: TNF-α activated human endothelial cells; assay: Micro-channel PMN adhesion assay under flow (FIG. 9); type: cell-based
Excerpt: In this study, the effects of Compound P3.1 on PMN adhesion to TNF-α activated human endothelial cell monolayers under flow conditions are investigated. It has been validated in vitro dynamic assay mimics neutrophil recruitment to endothelial cell monolayers under inflammatory conditions (TNF-α activation). In this assay, both control and sickle PMNs adhere to endothelial cells but to different degrees, reflecting in vivo conditions. The human dermal microvascular endothelial cell line HMEC-1 is used in this approach. The potential inhibitory effect of Compound P3.1 is tested in parallel and compared with the effect of HU and other PDE9 inhibitors.
In a first step, the effects of 1 uM Compound P3.1 and 10 uM HU were tested by incubating blood samples from healthy volunteers (n=3-6) (i.e., donors or donor cells) with these molecules.
Adhesion of PMNs from healthy volunteers was assessed under flow conditions, mimicking blood flow, in micro channels (Venaflux, Cellix, Ireland) coated with endothelial cell monolayers cultivated under inflammatory conditions. The adhesion assay was performed with whole fresh blood, previously incubated or not with Compound P3.1, to be closer to the physiological condition of circulation in a person, and to study the interaction between the different blood cells with PMNs.

CYP2B6 = assay: CYP induction in human hepatocytes, CYP2B6
PDE9 = PDE9 (Homo sapiens, UniProt O76083); assay: PDE9 inhibition assay; type: biochemical
Sequence of PDE9 (O76083 whole entry): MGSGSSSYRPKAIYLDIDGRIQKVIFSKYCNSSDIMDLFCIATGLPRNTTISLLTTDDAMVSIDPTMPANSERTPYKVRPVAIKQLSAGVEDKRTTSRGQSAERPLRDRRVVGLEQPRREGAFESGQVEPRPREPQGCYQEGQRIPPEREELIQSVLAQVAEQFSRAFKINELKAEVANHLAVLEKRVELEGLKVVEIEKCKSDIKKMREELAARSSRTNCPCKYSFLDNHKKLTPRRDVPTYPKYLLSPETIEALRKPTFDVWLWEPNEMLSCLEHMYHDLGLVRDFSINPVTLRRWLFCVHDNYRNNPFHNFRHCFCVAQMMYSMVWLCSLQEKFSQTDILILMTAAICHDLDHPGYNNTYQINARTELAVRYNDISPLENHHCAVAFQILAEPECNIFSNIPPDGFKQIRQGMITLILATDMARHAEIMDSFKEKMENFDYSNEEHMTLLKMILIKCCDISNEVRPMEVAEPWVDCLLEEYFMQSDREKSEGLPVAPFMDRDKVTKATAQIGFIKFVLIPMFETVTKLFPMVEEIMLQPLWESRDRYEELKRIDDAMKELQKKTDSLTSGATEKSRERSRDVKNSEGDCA
Description: Reactions are initiated by addition of the cyclic nucleotide substrate, and reactions are allowed to proceed for one hr at room temperature before being terminated through mixing with 15 uL 8 mg/mL yttrium silicate SPA beads (Amersham).
Following a 1 hour incubation the reactions were terminated by addition of 15 uL 8 mg/mL yttrium silicate SPA beads (Amersham). […] IC50 values were calculated by nonlinear regression using XLfit (IDBS).

[10] = tested on: K562 erythroleukemic cells; assay: HbF in cultured K562 cells; type: cell-based; conditions: 3 days
Description: K562 cells were cultured at 37° C. in IMDM® to which the required concentrations of test items or DMSO (negative control) had been added. Plated cells were maintained at 37° C. for 3 days at the end of which the presence of HbF within cells was detected by flow cytometry.

## C[C@@H]1CN(Cc2ncccn2)C[C@H]1c1cn2c(C3CCOCC3)ncc2c(=O)[nH]1 (single isomer, unassigned) [Compound P3.1]
[1]
  amount of HbF within cells (mean MFI): 10,840
  mean MFI of HbF relative to controls: 145%
[1]; 5 SCD subjects
  percentage of HbF positive CD36+ cells (mean): 24.6%
rat
  early embryonic development: no adverse effect
  pre- or post-implantation loss: no effect
CYP1A2
  induction of CYP1A2: no potential for induction
CYP3A4
  induction of CYP3A4: potential for induction
[2]
  MDR1 efflux transporter substrate: strong MDR1 (human P-gp) efflux transporter substrate
MDR1 (P-gp)
  efflux ratio: 180
[3]
  genotoxicity, chromosome aberration study: negative
[4]
  fraction unbound: 0.748
[5]
  inhibitory effect on hERG-mediated potassium currents: did not have an inhibitory effect; also recorded: no inhibitory effect
[6]
  fraction unbound: 0.771
[7]
  RBC count, hemoglobin concentration or hematocrit: not associated with any apparent alterations
  neutrophil levels: reduced neutrophil levels
  spleen weight: statistically significant decreases
  total bilirubin: statistically significant decreases
  total leucocyte count: statistically significant decreases
[7]; vs controls
  percentage of HbF positive RBCs: increases in the percentage of HbF positive RBCs
  percentage of sickled RBCs: statistically significant decreases in the percentage of sickled RBCs
[8]
  fraction unbound: 0.814
[9]; 1 uM Compound P3.1, whole blood of healthy volunteers
  adhesion of low-binding donor cells: no effect
[9]; 1 uM Compound P3.1 or 10 uM HU, whole blood of healthy volunteers
  adhesion of high-binding donor cells: reduced the adhesion of 3 of 4 high-binding donors
CYP2B6
  induction of CYP2B6: no potential for induction
PDE9
  IC50: 49 nM
[10]; 1 μM
  HbF positive cells: 68.7%
[10]; 3 μM
  HbF positive cells: 75.6%
[10]; 10 μM
  HbF positive cells: 85.6%
